Data: PubChem BioAssay AID220 (DTP/NCI, 2004)
Values joined by “and” are separate entries in the source; they are usually repeats but may differ in a detail not shown here. Equal entries are not always repeated. Inconclusive results are not listed.

System: CD8F1 mice, subcutaneous mammary adenocarcinoma, T/C%
Test: NCI In Vivo Anticancer Drug Screen. Data for tumor model Mammary Adenocarcinoma CD8F1 (subcutaneous) in CD8F1
Details: higher = larger tumour
How it was run: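 Transplantable tumors were established in mice, animals were dosed with compound or vehicle, and survival or tumor size was then measured in both groups. The treated result was divided by the control result.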

[1] = endpoint: median tumor weight change, dose: 12.5 mg/kg/injection, schedule: Q01DX001 (ip), vehicle: suspension in saline
[2] = endpoint: median tumor weight change, dose: 125.0 mg/kg/injection, schedule: Q01DX001 (ip), vehicle: saline with Tween-80
[3] = endpoint: median tumor weight change, dose: 250.0 mg/kg/injection, schedule: Q01DX001 (ip), vehicle: saline with Tween-80

CC(C)CCC(=O)c1ccoc1
T/C (endpoint: median tumor weight change, dose: 0.31 mg/kg/injection, schedule: Q03HX003 (ip), vehicle: saline with Tween-80): 90 % of control
T/C (endpoint: median tumor weight change, dose: 0.62 mg/kg/injection, schedule: Q03HX003 (ip), vehicle: saline with Tween-80): 102 % of control
T/C (endpoint: median tumor weight change, dose: 1.25 mg/kg/injection, schedule: Q03HX003 (ip), vehicle: saline with Tween-80): 103 % of control

NC(=S)c1cn(C2OC(CO)C(O)C2O)c2ncnc(N)c12 (stereo unspecified)
T/C (endpoint: median tumor weight change, dose: 3.12 mg/kg/injection, schedule: Q01DX001 (ip), vehicle: suspension in saline): 96 % of control
T/C (endpoint: median tumor weight change, dose: 6.25 mg/kg/injection, schedule: Q01DX001 (ip), vehicle: suspension in saline): 68 % of control
T/C [1]: 76 % of control

O=C(Nc1ccc(C2=NCCN2)cc1)c1ccc(C(=O)Nc2ccc(C3=NCCN3)cc2)c(Cl)c1
T/C (endpoint: mean tumor weight, dose: 6.25 mg/kg/injection, schedule: Q07DX004 (ip), vehicle: saline with Tween-80): 70 % of control
T/C (endpoint: mean tumor weight, dose: 12.5 mg/kg/injection, schedule: Q07DX004 (ip), vehicle: saline with Tween-80): 77 % of control
T/C (endpoint: mean tumor weight, dose: 25.0 mg/kg/injection, schedule: Q07DX004 (ip), vehicle: saline with Tween-80): 71 % of control

Cc1nc(N)nc(N)c1-c1ccc(Cl)c(Cl)c1
T/C (endpoint: mean tumor weight (est.), dose: 10.0 mg/kg/injection, schedule: Q07DX003 (ip), vehicle: saline with Tween-80): 120 % of control
T/C (endpoint: median tumor weight change, dose: 12.5 mg/kg/injection, schedule: Q01DX001 (ip), vehicle: saline with Tween-80): 20 % of control
T/C [1]: 79 % of control
T/C (endpoint: median tumor weight change, dose: 25.0 mg/kg/injection, schedule: Q01DX001 (ip), vehicle: saline with Tween-80): 50 % of control
T/C (endpoint: median tumor weight change, dose: 25.0 mg/kg/injection, schedule: Q01DX001 (ip), vehicle: suspension in saline): 38 % of control
T/C (endpoint: median tumor weight change, dose: 50.0 mg/kg/injection, schedule: Q01DX001 (ip), vehicle: saline with Tween-80): 8 % of control
T/C (endpoint: median tumor weight change, dose: 50.0 mg/kg/injection, schedule: Q01DX001 (ip), vehicle: suspension in saline): 12 % of control

NC(=O)Oc1cccc(OC(N)=O)c1
T/C (endpoint: mean tumor weight, dose: 50.0 mg/kg/injection, schedule: Q07DX006 (ip), vehicle: water): 161 % of control
T/C (endpoint: mean tumor weight, dose: 100.0 mg/kg/injection, schedule: Q07DX006 (ip), vehicle: water): 56 % of control
T/C (endpoint: mean tumor weight, dose: 200.0 mg/kg/injection, schedule: Q07DX006 (ip), vehicle: water): 73 % of control
T/C (endpoint: mean tumor weight, dose: 400.0 mg/kg/injection, schedule: Q07DX006 (ip), vehicle: water): 93 % of control
T/C (endpoint: median tumor weight (est.), dose: 25.0 mg/kg/injection, schedule: Q07DX005 (ip), vehicle: water): 99 % of control
T/C (endpoint: median tumor weight (est.), dose: 50.0 mg/kg/injection, schedule: Q07DX005 (ip), vehicle: water): 105 % of control
T/C (endpoint: median tumor weight (est.), dose: 200.0 mg/kg/injection, schedule: Q07DX005 (ip), vehicle: water): 106 % of control
T/C (endpoint: median tumor weight (est.), dose: 400.0 mg/kg/injection, schedule: Q07DX005 (ip), vehicle: water): 63 % of control

COc1cccc(C2NC(=O)c3c(n[nH]c3N)S2)c1O (stereo unspecified)
T/C (endpoint: median tumor weight change, dose: 112.5 mg/kg/injection, schedule: Q01DX001 (ip), vehicle: saline with Tween-80): 71 % of control
T/C (endpoint: median tumor weight change, dose: 225.0 mg/kg/injection, schedule: Q01DX001 (ip), vehicle: saline with Tween-80): 91 % of control
T/C (endpoint: median tumor weight change, dose: 450.0 mg/kg/injection, schedule: Q01DX001 (ip), vehicle: saline with Tween-80): 92 % of control
T/C (endpoint: median tumor weight change, dose: 900.0 mg/kg/injection, schedule: Q01DX001 (ip), vehicle: saline with Tween-80): 76 % of control
T/C (endpoint: median tumor weight change, dose: 1800.0 mg/kg/injection, schedule: Q01DX001 (ip), vehicle: saline with Tween-80): 79 % of control

CCOC(=O)c1cn(C)c2c1C(O)=C(C(=O)OC)CC(=O)N2
T/C [2]: 79 % of control
T/C [3]: 97 % of control
T/C (endpoint: median tumor weight change, dose: 500.0 mg/kg/injection, schedule: Q01DX001 (ip), vehicle: saline with Tween-80): 83 % of control
T/C (endpoint: median tumor weight change, dose: 1000.0 mg/kg/injection, schedule: Q01DX001 (ip), vehicle: saline with Tween-80): 95 % of control

NC1(C(=O)O)CCCC1
T/C (endpoint: mean tumor weight, dose: 5.0 mg/kg/injection, schedule: Q01DX009 (ip), vehicle: saline): 89 % of control
T/C (endpoint: mean tumor weight, dose: 10.0 mg/kg/injection, schedule: Q01DX009 (ip), vehicle: saline): 30 % of control
T/C (endpoint: mean tumor weight, dose: 12.5 mg/kg/injection, schedule: Q07DX005 (ip), vehicle: saline): 40 % of control
T/C (endpoint: mean tumor weight, dose: 12.5 mg/kg/injection, schedule: Q07DX007 (ip), vehicle: saline): 104 % of control
T/C (endpoint: mean tumor weight, dose: 20.0 mg/kg/injection, schedule: Q01DX009 (ip), vehicle: saline): 5 % of control
T/C (endpoint: mean tumor weight, dose: 25.0 mg/kg/injection, schedule: Q07DX004 (ip), vehicle: saline): 81 % of control
T/C (endpoint: mean tumor weight, dose: 25.0 mg/kg/injection, schedule: Q07DX005 (ip), vehicle: saline): 122 % of control
T/C (endpoint: mean tumor weight, dose: 25.0 mg/kg/injection, schedule: Q07DX007 (ip), vehicle: saline): 123 % of control
T/C (endpoint: mean tumor weight, dose: 25.0 mg/kg/injection, schedule: Q07DX008 (ip), vehicle: saline): 119 % of control
T/C (endpoint: mean tumor weight, dose: 50.0 mg/kg/injection, schedule: Q07DX004 (ip), vehicle: saline): 6 % of control
T/C (endpoint: mean tumor weight, dose: 50.0 mg/kg/injection, schedule: Q07DX005 (ip), vehicle: saline): 9 % of control
T/C (endpoint: mean tumor weight, dose: 50.0 mg/kg/injection, schedule: Q07DX007 (ip), vehicle: saline): 5 % of control
T/C (endpoint: mean tumor weight, dose: 50.0 mg/kg/injection, schedule: Q07DX008 (ip), vehicle: saline): 43 % of control
T/C (endpoint: median tumor weight (est.), dose: 25.0 mg/kg/injection, schedule: Q07DX005 (ip), vehicle: saline): 39 % of control
T/C (endpoint: median tumor weight (est.), dose: 50.0 mg/kg/injection, schedule: Q07DX005 (ip), vehicle: saline): 28 % of control

CCCCCc1cc(/C=C2/N=C(c3ccc[nH]3)C=C2OC)[nH]c1C
T/C (endpoint: median tumor weight (est.), dose: 0.5 mg/kg/injection, schedule: Q07DX005 (ip), vehicle: suspension in saline): 169 % of control
T/C (endpoint: median tumor weight (est.), dose: 1.0 mg/kg/injection, schedule: Q07DX005 (ip), vehicle: suspension in saline): 85 % of control
T/C (endpoint: median tumor weight (est.), dose: 4.0 mg/kg/injection, schedule: Q07DX005 (ip), vehicle: suspension in saline): 82 % of control
T/C (endpoint: median tumor weight (est.), dose: 8.0 mg/kg/injection, schedule: Q07DX005 (ip), vehicle: suspension in saline): 95 % of control

CC(=O)N(C)c1ccc(Nc2cc(C)[nH]c3ccc4ncnc4c23)cc1
T/C (endpoint: median tumor weight change, dose: 125.0 mg/kg/injection, schedule: Q01DX001 (ip), vehicle: saline): 34 % of control and 46 % of control

COc1cc2cc(c1Cl)N(C)C(=O)CC(OC(=O)C(C)C)C1(C)OC1C(C)C1CC(O)(NC(=O)O1)C(OC)/C=C/C=C(C)C2 (stereo unspecified)
T/C (endpoint: median tumor weight (est.), dose: 9.3 micrograms/kg/injection, schedule: Q07DX005 (ip), vehicle: saline + alcohol): 79 % of control
T/C (endpoint: median tumor weight (est.), dose: 18.7 micrograms/kg/injection, schedule: Q07DX005 (ip), vehicle: saline + alcohol): 103 % of control
T/C (endpoint: median tumor weight (est.), dose: 75.0 micrograms/kg/injection, schedule: Q07DX005 (ip), vehicle: saline + alcohol): 89 % of control
T/C (endpoint: median tumor weight (est.), dose: 150.0 micrograms/kg/injection, schedule: Q07DX005 (ip), vehicle: saline + alcohol): 45 % of control

CCNC(C)(C)C(SSS)c1ccco1 (stereo unspecified)
T/C (endpoint: median tumor weight change, dose: 31.25 mg/kg/injection, schedule: Q01DX001 (ip), vehicle: saline with Tween-80): 97 % of control
T/C (endpoint: median tumor weight change, dose: 62.5 mg/kg/injection, schedule: Q01DX001 (ip), vehicle: saline with Tween-80): 87 % of control
T/C [2]: 65 % of control
T/C [3]: 59 % of control

CCCCCCCCNc1cc2c3c(c1)CCCN3CCC2
T/C (endpoint: median tumor weight (est.), dose: 0.75 mg/kg/injection, schedule: Q07DX005 (ip), vehicle: Klucel (hydroxypropylcellulose) (HPC)): 88 % of control
T/C (endpoint: median tumor weight (est.), dose: 1.5 mg/kg/injection, schedule: Q07DX005 (ip), vehicle: Klucel (hydroxypropylcellulose) (HPC)): 87 % of control
T/C (endpoint: median tumor weight (est.), dose: 3.0 mg/kg/injection, schedule: Q07DX005 (ip), vehicle: Klucel (hydroxypropylcellulose) (HPC)): 81 % of control
T/C (endpoint: median tumor weight (est.), dose: 6.0 mg/kg/injection, schedule: Q07DX005 (ip), vehicle: Klucel (hydroxypropylcellulose) (HPC)): 103 % of control

CCCCCCCCCCC(OC(C)=O)C1CCC(C2CCC(C(O)CCCCCCCCCCCCC3C=C(C)OC3=O)O2)O1 (stereo unspecified)
T/C (endpoint: median tumor weight change, dose: 1.25 mg/kg/injection, schedule: Q01DX001 (ip), vehicle: water): 111 % of control
T/C (endpoint: median tumor weight change, dose: 10.0 mg/kg/injection, schedule: Q01DX001 (ip), vehicle: other): 76 % of control
T/C (endpoint: median tumor weight change, dose: 10.0 mg/kg/injection, schedule: Q01DX001 (ip), vehicle: water): 164 % of control
T/C (endpoint: median tumor weight change, dose: 20.0 mg/kg/injection, schedule: Q01DX001 (ip), vehicle: other): 41 % of control
T/C (endpoint: median tumor weight change, dose: 40.0 mg/kg/injection, schedule: Q01DX001 (ip), vehicle: other): 38 % of control
T/C (endpoint: median tumor weight change, dose: 80.0 mg/kg/injection, schedule: Q01DX001 (ip), vehicle: other): 38 % of control
